Read-outs that look alike come from different tables or passages of the source.
Assays:
[1] = biological target: T1, RORγ ligand binding domain (LBD) (Homo sapiens, UniProt P51449); assay: TR-FRET Activity Assay (ligand sensing, RORγ-LBD / coactivator peptide interaction, LANCE); format: biochemical
T1 construct: made in house; host or cells: E. coli BL-21 (BL3), vector pDEST15
T1 sequence (P51449 269-508 limits assumed): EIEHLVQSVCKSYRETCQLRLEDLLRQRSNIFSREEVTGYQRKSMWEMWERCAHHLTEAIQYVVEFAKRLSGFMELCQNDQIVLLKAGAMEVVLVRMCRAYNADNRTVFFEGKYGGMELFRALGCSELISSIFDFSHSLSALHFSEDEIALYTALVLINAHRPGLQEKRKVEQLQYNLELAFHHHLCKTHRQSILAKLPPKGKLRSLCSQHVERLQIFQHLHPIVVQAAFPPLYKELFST

RORγ = biological target: T2, RORγ (UniProt P51449); assay: RORγ Gal4 Reporter Gene Assay in 293T cells (firefly and renilla luciferase); format: cell-based, human
T2 sequence (P51449 1-518): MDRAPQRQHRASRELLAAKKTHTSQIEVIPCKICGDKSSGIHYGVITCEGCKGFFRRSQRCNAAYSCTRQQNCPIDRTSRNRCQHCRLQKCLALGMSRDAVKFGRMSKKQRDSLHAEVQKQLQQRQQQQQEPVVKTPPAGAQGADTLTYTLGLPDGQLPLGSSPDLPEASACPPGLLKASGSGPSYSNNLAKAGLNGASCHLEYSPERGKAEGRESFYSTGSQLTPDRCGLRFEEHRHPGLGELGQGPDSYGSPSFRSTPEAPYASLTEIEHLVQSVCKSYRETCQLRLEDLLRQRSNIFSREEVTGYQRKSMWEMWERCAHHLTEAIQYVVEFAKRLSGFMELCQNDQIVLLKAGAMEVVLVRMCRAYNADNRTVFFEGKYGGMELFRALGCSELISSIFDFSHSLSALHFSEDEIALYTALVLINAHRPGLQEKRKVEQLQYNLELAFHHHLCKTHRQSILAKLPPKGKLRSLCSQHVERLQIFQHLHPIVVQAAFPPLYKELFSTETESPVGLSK

[2] = first value of the cell FRET/FF/REN, TR-FRET activity assay, read-out: pIC50 (FRET) (converted)
[3] = second value of the cell, Gal4 reporter gene assay in 293T cells, firefly luciferase
[4] = third value of the cell, Gal4 reporter gene assay in 293T cells, renilla normalised luciferase

SMILES | IC50 [1, 2] [nM] | pIC50 (FF) (RORγ; [3]) | pIC50 (REN) (RORγ; [4]) | IC50 [1] [nM] | pIC50 (FF) (RORγ) | pIC50 (REN) (RORγ)
Cc1c(C(=O)NCCS(C)(=O)=O)cc(-c2cc(C(C)(C)O)cc(C3(C)CC3)c2)n1CC1CCCCC1 [17/317] | 2510 | 6.5 | 6.5 | – | – | –
Cc1c(C(=O)NCC(C)(C)c2noc(=O)[nH]2)cc(-c2cc(C(C)(C)O)cc(C3(C)CC3)c2)n1CC1CCCCC1 [17/310] | 1000 | 7.4 | 7.6 | – | – | –
Cc1c(C(=O)N[C@@H]2CCOC2)cc(-c2cc(C(C)(C)C)cc(C3(C)CC3)c2)n1CC1CCCCC1 [17/66] | – | 7.4 | 7.4 | 158 | – | –
Cc1c(C(=O)NCCCCCO)cc(-c2cc(C(C)(C)C)c3c(c2)C2(CCO3)CC2)n1CC1CCCCC1 [1/40] | – | – | – | 251 | 6.6/7.5/7.6 | 6.6/7.5/7.6
CC(C)(C)NS(=O)(=O)c1ccc(-c2cc(C(=O)N[C@H]3C[C@H](C(=O)O)C3)c(F)n2CC2CCCCC2)cc1C(F)(F)F [20/7] | 398 | 6.2 | 6.2 | – | – | –
Cc1c(C(=O)NCCCS(C)(=O)=O)cc(-c2cc(C(C)(C)C)c3c(c2)C2(CCO3)CC2)n1CC1CCCCC1 [17/80] | 501 | 6.9 | 7.0 | – | – | –
Cc1c(C(=O)NC2CCOCC2)cc(-c2ccc(S(=O)(=O)NC(C)(C)C)c(C(F)(F)F)c2)n1S(=O)(=O)C1CCCCC1 [17/218] | 316 | 7.1 | 7.3 | – | – | –
Cc1c(C(=O)NC2CCOCC2)cc(-c2ccc(S(=O)(=O)N3CCCC(C(F)(F)F)C3)c(C(C)(C)C)c2)n1CC1CCCCC1 (stereo not drawn) [17/102] | – | – | – | 251 | 6.6/6.8/6.9 | 6.6/6.8/6.9
Cc1c(C(=O)NC2COC2)cc(-c2cc(C(=O)NC(C)(C)C)cc(C(C)(C)C)c2)n1CC1CCCCC1 [15/5] | – | – | – | 794 | 6.1/7.6/7.7 | 6.1/7.6/7.7
COC(C)(C)c1cc(-c2cc(C(=O)NC3CCOCC3)c(C)n2CC2CCCCC2)cc(C2(C)CC2)c1 [1/44] | – | – | – | 501 | 6.3/7.4/7.3 | 6.3/7.4/7.3
Cc1c(C(=O)NC2CCOCC2)cc(-c2ccc(S(=O)(=O)NC(C)(C)C)c3ccccc23)n1CC1CCC1 [17/242] | 398 | 7.5 | 7.6 | – | – | –
Cc1c(C(=O)NCCN(C)C)cc(-c2cc(C(C)(C)C)cc(C(C)(C)C)c2)n1CC1CCCCC1 [1/56] | – | – | – | 3160 | 5.5/<4.7/<4.7 | 5.5/<4.7/<4.7
Cc1c(C(=O)NC2COC2)cc(-c2cc(C(F)(F)F)c3c(c2)C2(CCO3)CC2)n1CC1CCCCC1 [1/132] | 631 | 6.8 | 6.8 | – | – | –
Cc1c(C(=O)N[C@H]2CCCOC2)cc(-c2ccc(S(=O)(=O)NC(C)(C)C)c(C(F)(F)F)c2)n1CC1CCCCC1 [17/139] | 158 | 7.2 | 7.4 | – | – | –
Cc1c(C(=O)N[C@@H]2CCOC2)cc(-c2cc(C(C)(C)C)c3c(c2)C2(CCO3)CC2)n1CC1CCCCC1 [1/96] | 200 | 6.7 | 6.8 | – | – | –
Cc1c(S(=O)(=O)NC(C)(C)C)ccc(-c2cc(C(=O)NC3CCOCC3)c(C)n2CC2CCCCC2)c1C(F)(F)F [17/287] | 631 | 7.7 | 7.7 | – | – | –
Cc1c(C(=O)NCC2COC2)cc(-c2cc(C(C)(C)C)c3c(c2)C2(CCO3)CC2)n1CC1CCCCC1 [1/100] | 251 | 7.2 | 7.2 | – | – | –
Cc1c(C(=O)NCC(C)(C)C(N)=O)cc(-c2cc(C(C)(C)C)c3c(c2)C2(CCO3)CC2)n1CC1CCCCC1 [1/98] | 631 | 7.3 | 7.3 | – | – | –
Cc1c(C(=O)N[C@H]2C[C@H](C(=O)O)C2)cc(-c2cc(C(C)(C)C)nc(C3(C)CC3)c2)n1CC1CCCCC1 [17/292] | 1260 | 7.5 | 7.4 | – | – | –
Cc1c(C(=O)NCCN2CCOCC2)cc(-c2cc(C(C)(C)O)cc(C3(C)CC3)c2)n1CC1CCCCC1 [17/316] | 2510 | 6.3 | 6.3 | – | – | –
COC(=O)C(C)(C)CCNC(=O)c1cc(-c2cc(C(C)(C)C)cc(C3(C)CC3)c2)n(CC2CCCCC2)c1C [17/153] | 316 | 6.7 | 6.7 | – | – | –

SMILES | IC50 [1, 2] [nM] | pIC50 (FF) (RORγ; [3]) | pIC50 (REN) (RORγ; [4]) | IC50 [1] [nM] | pIC50 (FF) (RORγ) | pIC50 (REN) (RORγ)
Cc1c(C(=O)NCCC(C)(C)C(=O)O)cc(-c2ccc(S(=O)(=O)NC(C)(C)C)c(OC(F)F)c2)n1CC1CCCCC1 [17/167] | 794 | 6.6 | 6.8 | – | – | –
Cc1c(C(=O)NC2CCNC(=O)C2)cc(-c2ccc(S(=O)(=O)NC(C)(C)C)c(C(C)(C)C)c2)n1CC1CCCCC1 (stereo not drawn) [17/89] | 1580 | 6.9 | 6.9 | – | – | –
Cc1c(C(=O)NCc2cocn2)cc(-c2cc(C(C)(C)C)c3c(c2)C2(CCO3)CC2)n1CC1CCCCC1 [17/18] | – | – | – | 1000 | 6.0/6.1/6.1 | 6.0/6.1/6.1
Cc1cc(S(=O)(=O)NC(C)(C)C)c(C(F)(F)F)cc1-c1cc(C(=O)NC2CCOCC2)c(C)n1CC1CCCCC1 [17/233] | – | – | – | 1580 | 5.8/6.5/6.5 | 5.8/6.5/6.5
Cc1c(C(=O)NCCO)cc(-c2cc(C(C)(C)C)cc(C(C)(C)C)c2)n1CC1CCCCC1 [1/54] | – | – | – | 398 | 6.4/6.3/6.4 | 6.4/6.3/6.4
Cc1c(C(=O)N2CC(O)C2)cc(-c2ccc(S(=O)(=O)NC(C)(C)C)c(C(C)(C)C)c2)n1CC1CCCCC1 [17/94] | 1260 | 6.8 | 6.7 | – | – | –
Cc1c(C(=O)NC2CS(=O)(=O)C2)cc(-c2ccc(S(=O)(=O)NC(C)(C)C)c(C(C)(C)C)c2)n1CC1CCCCC1 [17/91] | – | – | – | 631 | 6.2/7.1/7.0 | 6.2/7.1/7.0
Cc1c(C(=O)NCCC(C)(C)C(=O)O)cc(-c2ccc(-c3ccnn3C(C)C)c(C(F)(F)F)c2)n1CC1CCCCC1 [17/250] | 1580 | 6.6 | 6.5 | – | – | –
Cc1c(C(=O)NC2CCOCC2)cc(-c2cc(C(F)(F)F)c(S(=O)(=O)NC(C)(C)C)cc2F)n1CC1CCCCC1 [17/230] | 251 | 7.5 | 7.6 | – | – | –
Cc1c(C(=O)NCCS(N)(=O)=O)cc(-c2cc(C(C)(C)O)cc(C3(C)CC3)c2)n1CC1CCCCC1 [17/315] | 1260 | 6.5 | 6.5 | – | – | –
Cc1c(C(=O)NCC(C)(C)NS(C)(=O)=O)cc(-c2cc(C(C)(C)C)cc(C3(C)CC3)c2)n1CC1CCCCC1 [17/67] | – | – | – | 251 | 6.6/7.7/7.5 | 6.6/7.7/7.5
CCN(C(C)(C)C)S(=O)(=O)c1ccc(-c2cc(C(=O)NC3CCOCC3)c(C)n2CC2CCCCC2)cc1C(F)(F)F [17/85] | – | – | – | > 20000 | <4.7/7.4/7.5 | <4.7/7.4/7.5
Cc1c(C(=O)NCCc2noc(=O)[nH]2)cc(-c2cc(C(C)(C)C)cc(C3(C)CC3)c2)n1CC1CCCCC1 [17/178] | 794 | 7.9 | 7.9 | – | – | –
Cc1c(C(=O)N2CCC(C)(O)CC2)cc(-c2ccc(S(=O)(=O)NC(C)(C)C)c(C(C)(C)C)c2)n1CC1CCCCC1 [17/93] | 1000 | 6.8 | 6.9 | – | – | –
Cc1c(C(=O)N2CC2CO)cc(-c2cc(C(C)(C)C)cc(C(C)(C)C)c2)n1CC1CCCCC1 (stereo not drawn) [17/45] | – | – | – | 1000 | 6.0/6.5/6.4 | 6.0/6.5/6.4
CC(C)(C)NS(=O)(=O)c1ccc(-c2cc(C(=O)NCCC(C)(C)C(=O)O)c(F)n2CC2CCCCC2)c2ccccc12 [20/9] | 1260 | 7.8 | 7.6 | – | – | –
Cc1c(C(=O)NC2CCOCC2)cc(-c2ccc(S(=O)(=O)NC(C)(C)C)c(C(F)(F)F)n2)n1CC1CCCCC1 [17/245] | > 20000 | 5.7 | 5.7 | – | – | –
Cc1c(C(=O)NC(C)C(C)(C)O)cc(-c2cc(C(C)(C)C)cc(C(C)(C)C)c2)n1CC1CCCCC1 (stereo not drawn) [1/36] | – | – | – | 158 | 6.8/6.5/6.6 | 6.8/6.5/6.6
Cc1c(C(=O)NC2CCC(C)(C(=O)O)CC2)cc(-c2ccc(S(=O)(=O)NC(C)(C)C)c(C(F)(F)F)c2)n1CC1CCCCC1 (stereo not drawn) [17/259] | 1000 | 7.2 | 7.2 | – | – | –
Cc1c(C(=O)N[C@H]2C[C@H](C(=O)O)C2)cc(-c2cc(C(=O)NC(C)(C)C)cc(C3(C)CC3)c2)n1CC1CCCCC1 [17/339] | 1260 | 7.6 | 7.7 | – | – | –
